In PubChem BioAssay (NCI) one finds GI50 and TGI data, which are given here for twelve molecules.

Where “and” joins values, the source holds several entries; their conditions need not be identical. Equal values may be shown once.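 Following 48 hours of exposure in 96-well plates, responses at five concentrations were used to interpolate endpoints linearly. Here, GI50 denotes the concentration required for 50% inhibition of growth. TGI: concentration producing complete growth inhibition.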

Some test systems named below: HOP-62 NSCLC; CAKI-1 renal; OVCAR-4 ovarian; SK-OV-3 ovarian; OVCAR-8 ovarian; MOLT-4 leukemia; SR leukemia; SN12C renal; OVCAR-5 ovarian; SK-MEL-2 melanoma.
Holding throughout (experiment): DTP human tumour cell line panel, 48 h

Usually GI50 stands for the concentration that inhibits growth by half. Usually TGI stands for the concentration at which net growth stops. Read a high TGI as less potent growth arrest. Take `Fc1ccc(Nc2nccc(-c3c(-c4ccc(C(F)(F)F)cc4)nn4ncccc34)n2)cc1F`: the GI50 in the experiment on HOP-62 NSCLC, in the experiment on CAKI-1 renal, in the experiment on OVCAR-4 ovarian, in the experiment with SK-OV-3 ovarian, with OVCAR-8 ovarian and with MOLT-4 leukemia was above 25 µM throughout. The GI50 in the experiment with SR leukemia, with SN12C renal and in the experiment with OVCAR-5 ovarian was above 25 µM each time. The total growth inhibition concentration (TGI) in the experiment with HOP-62 NSCLC, in the experiment on CAKI-1 renal, in the experiment with OVCAR-4 ovarian, with SK-OV-3 ovarian, with OVCAR-8 ovarian and in the experiment on MOLT-4 leukemia was above 25 µM throughout. Besides, the TGI with SR leukemia, with SN12C renal and in the experiment with OVCAR-5 ovarian was above 25 µM each time.
As for `N#Cc1ccccc1NC(=O)c1ccccc1`, the TGI in the experiment on HOP-62 NSCLC, in the experiment with CAKI-1 renal, in the experiment with OVCAR-4 ovarian, in the experiment with OVCAR-8 ovarian, with SR leukemia and in the experiment with SN12C renal was above 100 µM throughout. Besides, the TGI with SK-MEL-2 melanoma and with OVCAR-5 ovarian was above 100 µM in each case.
Take `COc1cc(Oc2c(O)c(C)c(OC)c(C(C)=O)c2O)c(C(C)=O)c(O)c1C`: the TGI was 83.1 µM in the experiment with HOP-62 NSCLC; above 100 µM in the experiment with CAKI-1 renal; above 100 µM in the experiment with OVCAR-4 ovarian; above 100 µM with SK-OV-3 ovarian; above 100 µM in the experiment with OVCAR-8 ovarian; above 100 µM in the experiment with SR leukemia. Also, the TGI in the experiment with SN12C renal and with OVCAR-5 ovarian was above 100 µM each time.
For `O=C(O)c1c[nH]cc1C(=O)O`, the TGI in the experiment with HOP-62 NSCLC, in the experiment with CAKI-1 renal, with OVCAR-4 ovarian, with SK-OV-3 ovarian, with OVCAR-8 ovarian and with MOLT-4 leukemia was above 100 µM in each case. In addition, the TGI with SR leukemia, in the experiment on SN12C renal and with OVCAR-5 ovarian was above 100 µM in each case.
Regarding `CC(=O)NC(CCCN(Cc1ccccc1)C(=O)N(CCCl)N=O)C(=O)NCc1ccccc1` (configuration not stated), the total growth inhibition concentration (TGI) in the experiment on HOP-62 NSCLC was 46.3 µM; in the experiment with OVCAR-4 ovarian, above 100 µM; in the experiment with SK-OV-3 ovarian, above 100 µM; in the experiment with OVCAR-8 ovarian it was above 100 µM; in the experiment on MOLT-4 leukemia it was 97.5 µM; in the experiment on SR leukemia, above 88.8 µM. The TGI in the experiment with SN12C renal is above 100 µM; in the experiment on SK-MEL-2 melanoma, above 94.8 µM; with OVCAR-5 ovarian, above 100 µM.
Consider `O=C1CC2C(=O)N(Cc3ccccc3)C1C(S(=O)(=O)c1ccccc1)C2S(=O)(=O)c1ccccc1` (configuration not stated), for which the concentration for total growth inhibition (TGI) with HOP-62 NSCLC was 36.9 µM; in the experiment with CAKI-1 renal it was 1.85 µM; in the experiment with OVCAR-4 ovarian it was 4.74 µM; with SK-OV-3 ovarian it was 31.5 µM; with OVCAR-8 ovarian it was 5.19 µM; in the experiment on MOLT-4 leukemia it was 7.72 µM. In addition, the total growth inhibition concentration (TGI) with SR leukemia worked out at 10.5 µM; in the experiment on SN12C renal it was 3.18 µM; in the experiment on OVCAR-5 ovarian it was 31.9 µM.
As to `CN(C)CCNC(=O)c1ccc(Cl)c2c(Nc3ccc(S(N)(=O)=O)cc3)c3ccccc3nc12`, the TGI is 21.6 µM with HOP-62 NSCLC; 17.1 µM with CAKI-1 renal; 6.22 µM with OVCAR-4 ovarian; 10.1 µM in the experiment with SK-OV-3 ovarian; 6.84 µM with OVCAR-8 ovarian; above 100 µM in the experiment with SR leukemia. The values for the TGI in the experiment on SN12C renal, in the experiment with SK-MEL-2 melanoma and in the experiment on OVCAR-5 ovarian were 10.1 µM, 4 µM and 8.48 µM, respectively.
For the molecule `COC(=O)[C@]1(C)CCC[C@@]2(C)C1CCC1=C[C@@]3(C(C)C)CC[C@]12OO3` (some centres not stated), the concentration for total growth inhibition (TGI) with HOP-62 NSCLC is above 100 µM; in the experiment with OVCAR-4 ovarian, above 100 µM; in the experiment on SK-OV-3 ovarian, above 100 µM; with OVCAR-8 ovarian, above 100 µM; with MOLT-4 leukemia it was 83.1 µM; with SR leukemia, 40.7 µM. The TGI in the experiment with SN12C renal was above 100 µM; with SK-MEL-2 melanoma, above 100 µM; in the experiment with OVCAR-5 ovarian it was 84.9 µM.
With `COc1cnc2c(c1)C(=O)c1c-2n(CCCN2CCCC2)c(=O)c2cc(Cl)ccc12`, the 50% growth inhibitory concentration (GI50) in the experiment on CAKI-1 renal was 0.034 µM; in the experiment on OVCAR-4 ovarian, 1.43 µM; in the experiment on SK-OV-3 ovarian, 1.47 µM; in the experiment with OVCAR-8 ovarian it was 0.813 µM; in the experiment on MOLT-4 leukemia, 0.0193 µM; in the experiment with SR leukemia it was 0.0499 µM. Further, the results for the GI50 in the experiment on SK-MEL-2 melanoma and with OVCAR-5 ovarian were 7.16 µM and 5.02 µM, respectively. The TGI was found to be 8.18 µM with CAKI-1 renal; 11.2 µM in the experiment with OVCAR-4 ovarian; 10.5 µM in the experiment on SK-OV-3 ovarian; 12.2 µM in the experiment on OVCAR-8 ovarian; 6.23 µM with MOLT-4 leukemia; 7.9 µM in the experiment on SR leukemia. For the same molecule, the TGI is 22.6 µM in the experiment with SK-MEL-2 melanoma and 11.3 µM with OVCAR-5 ovarian.
In the case of `CCc1c2c(nc3cccc(N)c13)-c1cc3c(c(=O)n1C2)COC(=O)[C@]3(O)CC`, the GI50 is 0.00143 µM in the experiment on HOP-62 NSCLC; 0.104 µM and 0.0238 µM with OVCAR-4 ovarian; 0.00719 µM in the experiment on SK-OV-3 ovarian; 0.00224 µM with OVCAR-8 ovarian; below 0.001 µM in the experiment on MOLT-4 leukemia; below 0.001 µM with SR leukemia. Besides, the GI50 with SN12C renal is below 0.001 µM. The TGI in the experiment on HOP-62 NSCLC is 4.29 µM; in the experiment with CAKI-1 renal, 0.0349 µM; in the experiment with OVCAR-4 ovarian, above 100 µM; in the experiment on SK-OV-3 ovarian, 4.13 µM and 13 µM; in the experiment on OVCAR-8 ovarian, above 100 µM; in the experiment on MOLT-4 leukemia it was 0.15 µM. Also, the TGI in the experiment on SN12C renal stood at 38.7 µM; with OVCAR-5 ovarian, 0.115 µM.
Take `CCCCC[C@H]1C/C=C2/C(=O)C(Cl)=C[C@@H]2C/C=C\CCCC(=O)O[C@@H](CCCCC)C/C=C2/C(=O)C(Cl)=C[C@@H]2C/C=C\CCCC(=O)O1`: the GI50 with HOP-62 NSCLC was 0.416 µM; with OVCAR-4 ovarian it was 0.461 µM; in the experiment on SK-OV-3 ovarian, 0.966 µM; in the experiment on OVCAR-8 ovarian, 0.38 µM; in the experiment with MOLT-4 leukemia, 0.234 µM; in the experiment on SR leukemia it was 0.159 µM. Further, the GI50 is 0.482 µM with SN12C renal, 0.362 µM in the experiment on SK-MEL-2 melanoma and 0.689 µM in the experiment with OVCAR-5 ovarian. Further, the TGI with HOP-62 NSCLC was determined as 1.01 µM; with OVCAR-4 ovarian, 1.79 µM; in the experiment with SK-OV-3 ovarian it was 4.18 µM; in the experiment with OVCAR-8 ovarian, 1.59 µM; with MOLT-4 leukemia, 1.71 µM; in the experiment with SR leukemia, 1.35 µM. For the same molecule, the TGI is 2.72 µM in the experiment with SN12C renal, 0.918 µM in the experiment with SK-MEL-2 melanoma and 2.94 µM with OVCAR-5 ovarian.
`CC(C)=CC(=O)CC(=O)C(=O)Nc1ccc(Cl)c(Cl)c1`: the TGI in the experiment on HOP-62 NSCLC, in the experiment with OVCAR-4 ovarian, with SK-OV-3 ovarian, in the experiment on OVCAR-8 ovarian, with MOLT-4 leukemia and with SR leukemia was above 100 µM throughout. Besides, the TGI in the experiment on SN12C renal, in the experiment with SK-MEL-2 melanoma and in the experiment with OVCAR-5 ovarian was above 100 µM each time.
